The results in this text go back to article PMC10004634 (PLOS ONE, 2023).

Read-outs that look alike come from different tables or passages of the source.

Common to all, as to assay: biochemical
Holding throughout (set-up): KINOMEscan scanMAX competition binding, DNA-tagged kinases, qPCR read-out, percent control at 300 nM

Assay [1] addresses T1, BRK (Homo sapiens, UniProt Q13882).
T1 construct: gene PTK6

In assay [2] the target is CSNK1G3 (Homo sapiens, UniProt Q9Y6M4).
Assay [3] concerns the target T2, EPHB2 (Homo sapiens, UniProt P29323).
T2 sequence (P29323 1-1055): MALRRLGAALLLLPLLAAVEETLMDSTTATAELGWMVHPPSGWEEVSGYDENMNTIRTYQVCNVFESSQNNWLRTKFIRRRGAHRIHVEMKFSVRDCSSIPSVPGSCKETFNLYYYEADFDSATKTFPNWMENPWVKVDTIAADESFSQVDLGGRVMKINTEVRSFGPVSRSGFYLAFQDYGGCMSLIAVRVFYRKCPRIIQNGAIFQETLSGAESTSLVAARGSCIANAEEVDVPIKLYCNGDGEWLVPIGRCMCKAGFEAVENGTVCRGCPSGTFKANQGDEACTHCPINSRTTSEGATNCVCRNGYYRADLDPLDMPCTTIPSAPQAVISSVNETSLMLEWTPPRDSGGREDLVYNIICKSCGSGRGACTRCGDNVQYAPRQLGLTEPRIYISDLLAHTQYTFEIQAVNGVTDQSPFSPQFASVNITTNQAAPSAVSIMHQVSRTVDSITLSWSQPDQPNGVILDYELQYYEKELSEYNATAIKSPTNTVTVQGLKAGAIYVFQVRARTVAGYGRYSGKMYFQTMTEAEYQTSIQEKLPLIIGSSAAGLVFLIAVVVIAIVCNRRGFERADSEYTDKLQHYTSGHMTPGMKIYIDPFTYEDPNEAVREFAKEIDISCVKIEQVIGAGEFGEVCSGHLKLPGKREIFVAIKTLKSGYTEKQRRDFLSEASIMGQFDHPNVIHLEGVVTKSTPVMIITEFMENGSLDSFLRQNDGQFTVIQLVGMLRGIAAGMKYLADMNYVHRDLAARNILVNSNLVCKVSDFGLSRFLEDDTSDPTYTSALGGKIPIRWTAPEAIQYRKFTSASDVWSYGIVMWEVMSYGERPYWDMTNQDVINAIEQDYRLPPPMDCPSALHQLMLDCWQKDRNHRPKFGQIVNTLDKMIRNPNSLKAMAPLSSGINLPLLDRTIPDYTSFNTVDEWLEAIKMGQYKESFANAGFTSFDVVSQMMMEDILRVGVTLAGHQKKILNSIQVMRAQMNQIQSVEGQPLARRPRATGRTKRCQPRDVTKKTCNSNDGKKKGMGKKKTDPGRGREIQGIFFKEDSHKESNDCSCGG

The target in assay [4] is DAPK2 (Homo sapiens, UniProt Q9UIK4).
Assay [5] has as its target T3, NEK2 (Homo sapiens, UniProt P51955).
T3 sequence (P51955 1-445): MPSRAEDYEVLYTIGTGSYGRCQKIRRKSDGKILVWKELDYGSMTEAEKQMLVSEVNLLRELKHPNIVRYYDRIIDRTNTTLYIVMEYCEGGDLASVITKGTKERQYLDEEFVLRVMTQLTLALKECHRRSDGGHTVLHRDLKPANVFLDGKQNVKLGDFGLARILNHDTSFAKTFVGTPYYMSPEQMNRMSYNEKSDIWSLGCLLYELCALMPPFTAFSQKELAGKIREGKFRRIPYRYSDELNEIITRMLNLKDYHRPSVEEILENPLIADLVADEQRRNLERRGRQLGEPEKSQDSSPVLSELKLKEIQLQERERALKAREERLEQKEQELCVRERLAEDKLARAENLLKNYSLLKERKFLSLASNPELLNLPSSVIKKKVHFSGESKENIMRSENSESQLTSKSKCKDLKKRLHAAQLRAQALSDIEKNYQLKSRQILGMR

Assay [6] has as its target T4, JAK1(JH2domain-pseudokinase) (Homo sapiens, UniProt P23458).
T4 construct: JH2domain-pseudokinase

For assay [7], the target named is T5, PFTAIRE2 (Homo sapiens, UniProt Q96Q40).
T5 construct: gene CDK15

Assay [8] has as its target T6, MEK5 (Homo sapiens, UniProt Q13163).
T6 construct: gene MAP2K5
T6 sequence (Q13163 1-448): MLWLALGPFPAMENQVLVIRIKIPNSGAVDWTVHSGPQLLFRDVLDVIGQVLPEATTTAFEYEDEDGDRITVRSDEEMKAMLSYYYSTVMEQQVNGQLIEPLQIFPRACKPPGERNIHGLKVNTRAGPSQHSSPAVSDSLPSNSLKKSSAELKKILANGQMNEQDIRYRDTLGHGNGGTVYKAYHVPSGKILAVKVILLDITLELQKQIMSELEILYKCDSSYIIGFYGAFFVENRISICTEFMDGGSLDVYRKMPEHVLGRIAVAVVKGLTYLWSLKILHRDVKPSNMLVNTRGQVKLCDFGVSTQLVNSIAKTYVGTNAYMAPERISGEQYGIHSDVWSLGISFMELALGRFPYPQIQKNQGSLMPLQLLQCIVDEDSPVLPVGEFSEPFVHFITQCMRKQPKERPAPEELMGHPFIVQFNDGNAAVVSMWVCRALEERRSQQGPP

The mark [9] stands for this setting: read-out: Percent control / Zanubrutinib.
[10] abbreviates: read-out: Percent control / Tirabrutinib.
Setting [11] is: read-out: Percent control / Ibrutinib.
[12] abbreviates: read-out: Percent control / Acalabrutinib.

T5 sequence (Q96Q40 whole entry): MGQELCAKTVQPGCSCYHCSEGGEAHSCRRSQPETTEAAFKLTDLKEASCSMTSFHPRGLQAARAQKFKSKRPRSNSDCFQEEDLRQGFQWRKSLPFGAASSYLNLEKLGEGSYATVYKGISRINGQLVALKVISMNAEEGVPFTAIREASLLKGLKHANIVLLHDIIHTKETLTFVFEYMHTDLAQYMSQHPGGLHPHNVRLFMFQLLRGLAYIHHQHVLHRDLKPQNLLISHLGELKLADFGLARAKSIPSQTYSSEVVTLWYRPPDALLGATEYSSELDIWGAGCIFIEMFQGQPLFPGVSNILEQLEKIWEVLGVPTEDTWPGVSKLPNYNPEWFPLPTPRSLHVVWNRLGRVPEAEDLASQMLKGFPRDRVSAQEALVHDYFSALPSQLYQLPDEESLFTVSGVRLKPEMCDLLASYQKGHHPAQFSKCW
T1 sequence (Q13882 whole entry): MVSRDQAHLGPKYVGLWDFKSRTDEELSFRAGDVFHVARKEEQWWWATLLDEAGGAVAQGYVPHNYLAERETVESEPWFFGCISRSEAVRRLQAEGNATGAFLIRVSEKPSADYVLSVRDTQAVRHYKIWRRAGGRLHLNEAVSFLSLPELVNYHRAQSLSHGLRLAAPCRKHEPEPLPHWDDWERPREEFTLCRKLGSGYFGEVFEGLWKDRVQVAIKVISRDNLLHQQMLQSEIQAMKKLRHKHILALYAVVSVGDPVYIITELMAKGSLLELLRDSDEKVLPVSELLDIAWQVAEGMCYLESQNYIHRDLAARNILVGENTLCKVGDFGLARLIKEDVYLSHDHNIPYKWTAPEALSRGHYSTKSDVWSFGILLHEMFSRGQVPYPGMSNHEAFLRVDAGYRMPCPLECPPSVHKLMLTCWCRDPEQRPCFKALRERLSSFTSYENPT
Chain of CSNK1G3 (Q9Y6M4 whole entry): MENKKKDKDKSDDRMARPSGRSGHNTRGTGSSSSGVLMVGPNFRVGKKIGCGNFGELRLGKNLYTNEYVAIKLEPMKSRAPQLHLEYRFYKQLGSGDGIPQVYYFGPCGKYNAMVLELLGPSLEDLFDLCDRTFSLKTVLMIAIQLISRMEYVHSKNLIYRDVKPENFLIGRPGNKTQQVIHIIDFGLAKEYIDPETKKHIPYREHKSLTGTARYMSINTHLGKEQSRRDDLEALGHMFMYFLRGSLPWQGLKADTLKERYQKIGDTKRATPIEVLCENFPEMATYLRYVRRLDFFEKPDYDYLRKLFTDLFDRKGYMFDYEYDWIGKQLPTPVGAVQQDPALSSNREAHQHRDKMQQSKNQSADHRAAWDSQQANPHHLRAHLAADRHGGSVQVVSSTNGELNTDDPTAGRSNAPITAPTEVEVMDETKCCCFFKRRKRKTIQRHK
T4 sequence (P23458 whole entry): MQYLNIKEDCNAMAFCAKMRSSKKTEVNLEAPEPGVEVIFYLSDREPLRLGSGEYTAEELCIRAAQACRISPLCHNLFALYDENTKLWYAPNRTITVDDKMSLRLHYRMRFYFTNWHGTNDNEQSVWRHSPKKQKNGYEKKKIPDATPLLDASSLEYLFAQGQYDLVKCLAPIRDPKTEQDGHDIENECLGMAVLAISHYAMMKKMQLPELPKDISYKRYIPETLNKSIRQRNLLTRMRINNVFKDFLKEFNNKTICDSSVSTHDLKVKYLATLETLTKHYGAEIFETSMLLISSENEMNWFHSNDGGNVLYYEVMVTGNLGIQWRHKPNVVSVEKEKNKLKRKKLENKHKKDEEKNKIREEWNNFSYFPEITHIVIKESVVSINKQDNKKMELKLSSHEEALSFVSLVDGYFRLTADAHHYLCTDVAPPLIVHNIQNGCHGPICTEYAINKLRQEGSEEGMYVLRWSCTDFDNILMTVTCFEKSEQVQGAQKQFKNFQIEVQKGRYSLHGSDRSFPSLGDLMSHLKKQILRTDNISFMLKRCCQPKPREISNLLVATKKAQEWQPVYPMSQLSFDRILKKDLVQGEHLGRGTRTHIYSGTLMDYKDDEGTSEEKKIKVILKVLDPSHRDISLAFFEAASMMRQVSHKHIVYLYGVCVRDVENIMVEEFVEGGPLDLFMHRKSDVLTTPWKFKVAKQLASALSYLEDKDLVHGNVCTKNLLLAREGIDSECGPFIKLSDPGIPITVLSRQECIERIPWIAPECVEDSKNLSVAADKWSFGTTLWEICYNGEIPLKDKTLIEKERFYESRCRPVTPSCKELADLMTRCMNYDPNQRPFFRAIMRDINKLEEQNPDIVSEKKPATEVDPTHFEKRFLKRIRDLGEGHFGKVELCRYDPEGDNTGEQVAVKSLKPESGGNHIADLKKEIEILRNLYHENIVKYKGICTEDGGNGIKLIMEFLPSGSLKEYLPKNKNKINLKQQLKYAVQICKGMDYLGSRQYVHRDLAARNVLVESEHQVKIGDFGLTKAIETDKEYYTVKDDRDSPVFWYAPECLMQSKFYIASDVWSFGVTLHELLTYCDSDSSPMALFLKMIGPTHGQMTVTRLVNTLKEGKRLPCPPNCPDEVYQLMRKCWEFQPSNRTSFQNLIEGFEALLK
Chain of DAPK2 (Q9UIK4 whole entry): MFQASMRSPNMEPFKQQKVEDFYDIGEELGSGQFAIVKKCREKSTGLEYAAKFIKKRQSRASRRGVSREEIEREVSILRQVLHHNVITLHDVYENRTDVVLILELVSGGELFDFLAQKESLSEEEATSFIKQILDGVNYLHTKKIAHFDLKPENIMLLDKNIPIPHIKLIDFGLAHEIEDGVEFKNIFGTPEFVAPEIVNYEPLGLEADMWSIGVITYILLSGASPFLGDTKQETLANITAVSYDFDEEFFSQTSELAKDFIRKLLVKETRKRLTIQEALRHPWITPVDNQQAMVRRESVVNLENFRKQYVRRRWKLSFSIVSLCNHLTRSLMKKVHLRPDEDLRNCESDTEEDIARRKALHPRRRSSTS

As for `C=CC(=O)N1CCC([C@@H]2CCNc3c(C(N)=O)c(-c4ccc(Oc5ccccc5)cc4)nn32)CC1` [Zanubrutinib], the remaining binding at 0.3 µM in assay [1] (setting [9]) amounted to 35%; in assay [2] (setting [9]), 90%; in assay [3] (setting [9]), 100%; in assay [4] (setting [9]) it was 91%; in assay [5] (setting [9]), 90%; in assay [6] (setting [9]) it was 88%.

For `CC#CC(=O)N1CC[C@@H](n2c(=O)n(-c3ccc(Oc4ccccc4)cc3)c3c(N)ncnc32)C1` [Tirabrutinib], the remaining binding at 0.3 µM is 99% in assay [7] (setting [10]); 99% in assay [2] (setting [10]); 87% in assay [3] (setting [10]); 41% in assay [8] (setting [10]); 88% in assay [4] (setting [10]); 93% in assay [5] (setting [10]). The remaining binding at 0.3 µM in assay [6] (setting [10]) came out at 79%.

As to `C=CC(=O)N1CCC[C@@H](n2nc(-c3ccc(Oc4ccccc4)cc3)c3c(N)ncnc32)C1` [Ibrutinib], the remaining binding at 0.3 µM amounted to 3.4% in assay [1] (setting [11]); 89% in assay [7] (setting [11]); 0.6% in assay [8] (setting [11]); 79% in assay [4] (setting [11]); 84% in assay [5] (setting [11]); 80% in assay [6] (setting [11]).

Take `CC#CC(=O)N1CCC[C@H]1c1nc(-c2ccc(C(=O)Nc3ccccn3)cc2)c2c(N)nccn12` [Acalabrutinib]: the remaining binding at 0.3 µM is 87% in assay [1] (setting [12]); 82% in assay [7] (setting [12]); 91% in assay [2] (setting [12]); 89% in assay [3] (setting [12]); 71% in assay [8] (setting [12]); 95% in assay [5] (setting [12]). In assay [6] (setting [12]), the remaining binding at 0.3 µM worked out at 99%.
